From article PMC4019635 (PLoS ONE, 2014) come the findings set out here.

One assay has as its target RDLbdI/V (Drosophila melanogaster, UniProt P25123, I283V). As to the kind of experiment: cell-based.
In another assay the target is RDLbdI/VA^301S (Drosophila melanogaster, UniProt P25123, A301S/I283V). As to the kind of experiment: cell-based.
RDLbdI/VA^301S, sequence (P25123 45-606 I283V/A301S): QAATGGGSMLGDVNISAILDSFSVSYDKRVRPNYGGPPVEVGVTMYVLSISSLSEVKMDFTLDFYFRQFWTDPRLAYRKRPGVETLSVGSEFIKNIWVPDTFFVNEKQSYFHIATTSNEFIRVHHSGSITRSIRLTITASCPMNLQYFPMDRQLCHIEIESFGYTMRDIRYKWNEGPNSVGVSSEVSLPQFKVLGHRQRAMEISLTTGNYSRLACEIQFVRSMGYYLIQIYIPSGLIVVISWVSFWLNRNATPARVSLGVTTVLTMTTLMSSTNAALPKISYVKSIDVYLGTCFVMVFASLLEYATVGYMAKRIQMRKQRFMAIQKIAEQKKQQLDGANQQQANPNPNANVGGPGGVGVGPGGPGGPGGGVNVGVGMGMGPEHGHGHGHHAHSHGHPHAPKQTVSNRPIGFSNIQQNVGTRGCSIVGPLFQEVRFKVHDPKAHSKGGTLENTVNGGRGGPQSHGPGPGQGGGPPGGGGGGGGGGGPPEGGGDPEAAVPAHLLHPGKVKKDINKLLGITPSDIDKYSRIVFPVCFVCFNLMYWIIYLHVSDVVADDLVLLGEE

RDLbdI/V, sequence (P25123 45-606 I283V): as the sequence (P25123 45-606 I283V/A301S) above, with S257A counted along it

With `CC[C@H](C)[C@H]1O[C@]2(CC[C@@H]1C)C[C@@H]1C[C@@H](C/C=C(\C)[C@@H](O[C@H]3C[C@H](OC)[C@@H](O[C@H]4C[C@H](OC)[C@@H](O)[C@H](C)O4)[C@H](C)O3)[C@@H](C)/C=C/C=C3\CO[C@@H]4[C@H](O)C(C)=C[C@@H](C(=O)O1)[C@]34O)O2` [IVM, ivermectin], the values for the IC50 against RDLbdI/V and against RDLbdI/VA^301S were 0.468 µM and 1.2 µM, respectively. Regarding `NC/C=C/C(=O)O` [TACA, trans-4-aminocrotonic acid], at RDLbdI/V, the response was half-maximal at 263 µM (EC50).

As for `NCc1cc(=O)[nH]o1` [muscimol], the midpoint of the response at RDLbdI/V, the EC50, lay at 95.5 µM. For the compound `NCCC(=O)O` [β-alanine], the EC50 on RDLbdI/V is 3090 µM. Against the preceding compound, the EC50 is about 32-fold higher.

A word on the IC50: it is the concentration that gives 50% inhibition. A word on the EC50: it is the concentration at which the effect is half-maximal. A higher EC50 goes with weaker potency.
